Results from ChEMBL document CHEMBL1127067 (1993).

Legend:
Format in all cases: functional
[1] = test system: Mus musculus; assay: Antitumor activity against B-16 melanoma in BDF1 mice expressed as percentage increase in life span at optimum dose of 6 mg/kg; conditions: B16
[2] = organism: Mus musculus; assay: Number of survivors after treating 42 mice (infected with P388 leukemia) for 30 days
[3] = organism: Mus musculus; assay: Number of survivors after treating 12 mice (infected with B16 melanoma) for 60 days
[4] = test system: Mus musculus; assay: Antitumor activity against P388 leukemia in BDF1/CDF1 mice expressed as percentage increase in life span at optimum dose of 12.5 mg/kg

C(=N\NC1=NCCN1)/c1c2ccccc2c(/C=N/NC2=NCCN2)c2ccccc12 [BISANTRENE]
ILS at 6 mg/kg [1]: 122%
Cures [2]: 17
Cures [3]: 2
ILS at 12.5 mg/kg [4]: 137%
